These results are taken from patent US20240409880A1, “METHODS FOR INCREASING ALGAE PRODUCTIVITY USING HIGH SILICA CONCENTRATIONS” (Global Algae Technology, LLC, priority 2023, published 2024).

This assay relates to Nitzschia inconspicua. Put plainly: Cultivation of Nitzschia inconspicua in an open raceway pond at high silica loading, lipid content of harvested slurry. It counts as cell-based. As to the method: Nitzschia inconspicua was cultivated at pH 9.6 with a silica loading of 10-11 mM in an open raceway pond for 20 days. Silica was added to the culture at a concentration of 1-3 mM each day to maintain the 10-11 mM silica loading as the algae grew and the batch volume increased. The silica loading was reduced to below 5 mM by diluting the culture without adding silica. The third day after reducing the silica loading, the loading was 2 mM. The algae slurry was harvested on the third day and analyzed for lipid content. The lipid content was 47% of the ash-free dry weight of the biomass. This is a substantial increase in lipid content compared to the typical 5-10% lipid content when the algae is grown in standard media with silica concentrations below 500 μM.

As for `O=[Si]=O` [silica], the typical lipid content (algae grown in standard media with silica concentrations below 500 μM) is reported as 5-10%. Also, the lipid content (pH 9.6, silica loading 10-11 mM for 20 days, then reduced to below 5 mM, loading 2 mM at harvest on the third day) is given as 47 % of the ash-free dry weight of the biomass.
